{"source": "patent US20200206108A1", "about": "“Oral Care Compositions and Methods of Use” (Colgate-Palmolive Company, priority 2018, published 2020)"}
{"assay": "Zeta potential of zinc oxide in the presence of amino acids", "type": "physicochemical", "details": "aqueous zinc oxide suspension 12 mM, alone (pH 8) or with the named amino acid (1.7 mmol) added", "protocol": "The effect on zinc oxide particle charge upon exposure to amino acids was screened using zeta potential. Specific amino acids were selected based on side chain functionality: L-serine (polar, neutral), L-arginine (polar, cationic), and L-glutamic acid (polar, anionic). For zeta potential measurements, select amino acids (1.7 mmol) were added to aqueous suspensions of zinc oxide (12 mM). This concentration of zinc oxide was studied so as to minimize aggregation during zeta potential measurements. Each amino acid-zinc oxide solution was vortexed, sonicated, and then loaded into a Zetasizer DTS 1061 capillary cuvette. The cuvette was placed in the Zetasizer instrument and 12 zeta runs were performed. An average zeta potential value was calculated from the results."}
{"compound": "N=C(N)NCCC[C@H](N)C(=O)O", "note": "[L-arginine]", "zeta potential (charge of zinc oxide)": "+36 mV"}
{"compound": "N[C@@H](CCC(=O)O)C(=O)O", "note": "[L-glutamic acid]", "zeta potential (charge of zinc oxide)": "−28 mV"}
{"compound": "N[C@@H](CO)C(=O)O", "note": "[L-serine]", "zeta potential (charge of zinc oxide)": "did not alter the charge"}
{"compound": "[O]=[Zn]", "note": "[Zinc oxide, zinc oxide]", "zeta potential (charge of zinc oxide)": "+16 mV"}
